Test results reported in ChEMBL document CHEMBL2331210, “New 2-benzylsulfanyl-nicotinic acid based 1,3,4-oxadiazoles: their synthesis and biological evaluation” (2013).
Values after ≈ are worked out from the molar mass of the structure shown.

How the values were obtained:
NCI/ADR-RES = test: Antitumor activity against human NCI/ADR-RES cells assessed as cell growth at 0.1 uM; format: functional; conditions: read-out: Activity
[1] = Antitumor activity against human HCC2998 cells assessed as cell growth at 0.1 uM; format: functional; conditions: HCC 2998, read-out: Activity
HL-60 = test: Antitumor activity against human HL60(TB) cells assessed as cell growth at 0.1 uM; format: functional; conditions: read-out: Activity
UO-31 = test: Antitumor activity against human UO31 cells assessed as cell growth at 0.1 uM; format: functional; conditions: read-out: Activity
NCI-H23 = test: Antitumor activity against human NCI-H23 cells assessed as cell growth at 0.1 uM; format: functional; conditions: read-out: Activity
Aspergillus niger = test: Antimicrobial activity against Aspergillus niger MTCC 282 assessed as growth inhibition measured after overnight incubation by broth dilution method; format: functional
A498 = test: Antitumor activity against human A498 cells assessed as cell growth at 0.1 uM; format: functional; conditions: read-out: Activity
DU-145 = test: Antitumor activity against human DU145 cells assessed as cell growth at 0.1 uM; format: functional; conditions: read-out: Activity
HCT-116 = test: Antitumor activity against human HCT116 cells assessed as cell growth at 0.1 uM; format: functional; conditions: read-out: Activity
SNB-75 = test: Antitumor activity against human SNB75 cells assessed as cell growth at 0.1 uM; format: functional; conditions: read-out: Activity
Staphylococcus aureus = test: Antimicrobial activity against Staphylococcus aureus MTCC 96 assessed as growth inhibition measured after overnight incubation by broth dilution method; format: functional
OVCAR-4 = test: Antitumor activity against human OVCAR4 cells assessed as cell growth at 0.1 uM; format: functional; conditions: read-out: Activity
SW-620 = test: Antitumor activity against human SW620 cells assessed as cell growth at 0.1 uM; format: functional; conditions: read-out: Activity
U-251 = test: Antitumor activity against human U251 cells assessed as cell growth at 0.1 uM; format: functional; conditions: read-out: Activity
MDA-MB-231 = test: Antitumor activity against human MDA-MB-231/ATCC cells assessed as cell growth at 0.1 uM; format: functional; conditions: read-out: Activity
[2] = test system: Mycobacterium tuberculosis; test: Antitubercular activity against Mycobacterium tuberculosis H37Rv assessed as growth inhibition after 12 to 28 days by L.J. agar MIC method; format: functional
UACC-257 = test: Antitumor activity against human UACC257 cells assessed as cell growth at 0.1 uM; format: functional; conditions: read-out: Activity
HCT-15 = test: Antitumor activity against human HCT15 cells assessed as cell growth at 0.1 uM; format: functional; conditions: read-out: Activity
Pseudomonas aeruginosa = test: Antimicrobial activity against Pseudomonas aeruginosa MTCC 2488 assessed as growth inhibition measured after overnight incubation by broth dilution method; format: functional
LOX IMVI = test: Antitumor activity against human LOXIMVI cells assessed as cell growth at 0.1 uM; format: functional; conditions: read-out: Activity
NCI-H460 = test: Antitumor activity against human NCI-H460 cells assessed as cell growth at 0.1 uM; format: functional; conditions: read-out: Activity
NCI-H522 = test: Antitumor activity against human NCI-H522 cells assessed as cell growth at 0.1 uM; format: functional; conditions: read-out: Activity
SN12C = test: Antitumor activity against human SN12C cells assessed as cell growth at 0.1 uM; format: functional; conditions: read-out: Activity
IGROV-1 = test: Antitumor activity against human IGROV1 cells assessed as cell growth at 0.1 uM; format: functional; conditions: read-out: Activity
SR = test: Antitumor activity against human SR cells assessed as cell growth at 0.1 uM; format: functional; conditions: read-out: Activity
SF-268 = test: Antitumor activity against human SF268 cells assessed as cell growth at 0.1 uM; format: functional; conditions: read-out: Activity
K562 = test: Antitumor activity against human K562 cells assessed as cell growth at 0.1 uM; format: functional; conditions: read-out: Activity
PC-3 = test: Antitumor activity against human PC3 cells assessed as cell growth at 0.1 uM; format: functional; conditions: read-out: Activity
SK-MEL-5 = test: Antitumor activity against human SK-MEL-5 cells assessed as cell growth at 0.1 uM; format: functional; conditions: read-out: Activity
UACC-62 = test: Antitumor activity against human UACC62 cells assessed as cell growth at 0.1 uM; format: functional; conditions: read-out: Activity
A549 = test: Antitumor activity against human A549/ATCC cells assessed as cell growth at 0.1 uM; format: functional; conditions: read-out: Activity
SK-MEL-28 = test: Antitumor activity against human SK-MEL-28 cells assessed as cell growth at 0.1 uM; format: functional; conditions: read-out: Activity
M14 = test: Antitumor activity against human M14 cells assessed as cell growth at 0.1 uM; format: functional; conditions: read-out: Activity
MDA-MB-435 = test: Antitumor activity against human MDA-MB-435 cells assessed as cell growth at 0.1 uM; format: functional; conditions: read-out: Activity
OVCAR-8 = test: Antitumor activity against human OVCAR8 cells assessed as cell growth at 0.1 uM; format: functional; conditions: read-out: Activity
Candida albicans = test: Antimicrobial activity against Candida albicans MTCC 227 assessed as growth inhibition measured after overnight incubation by broth dilution method; format: functional
RXF 393 = test: Antitumor activity against human RXF393 cells assessed as cell growth at 0.1 uM; format: functional; conditions: read-out: Activity
OVCAR-3 = test: Antitumor activity against human OVCAR3 cells assessed as cell growth at 0.1 uM; format: functional; conditions: read-out: Activity
MCF7 = test: Antitumor activity against human MCF7 cells assessed as cell growth at 0.1 uM; format: functional; conditions: read-out: Activity
TK-10 = test: Antitumor activity against human TK10 cells assessed as cell growth at 0.1 uM; format: functional; conditions: read-out: Activity
T47D = test: Antitumor activity against human T47D cells assessed as cell growth at 0.1 uM; format: functional; conditions: read-out: Activity
CAKI-1 = test: Antitumor activity against human CAKI-1 cells assessed as cell growth at 0.1 uM; format: functional; conditions: read-out: Activity
CCRF-CEM = test: Antitumor activity against human CCRF-CEM cells assessed as cell growth at 0.1 uM; format: functional; conditions: read-out: Activity
NCI-H226 = test: Antitumor activity against human NCI-H226 cells assessed as cell growth at 0.1 uM; format: functional; conditions: read-out: Activity
ACHN = test: Antitumor activity against human ACHN cells assessed as cell growth at 0.1 uM; format: functional; conditions: read-out: Activity
[3] = Antitumor activity against human Hs 578T cells assessed as cell growth at 0.1 uM; format: functional; conditions: read-out: Activity
SK-MEL-2 = test: cells; conditions: Homo sapiens, SK-MEL-2, read-out: Activity
Description: Antitumor activity against human SK-MEL-2 cells assessed as cell growth at 0.1 uM

Escherichia coli = test: Antimicrobial activity against Escherichia coli MTCC 443 assessed as growth inhibition measured after overnight incubation by broth dilution method; format: functional
Aspergillus clavatus = test: Antimicrobial activity against Aspergillus clavatus MTCC 1323 assessed as growth inhibition measured after overnight incubation by broth dilution method; format: functional
SF-295 = test: Antitumor activity against human SF295 cells assessed as cell growth at 0.1 uM; format: functional; conditions: read-out: Activity
SF-539 = test: Antitumor activity against human SF539 cells assessed as cell growth at 0.1 uM; format: functional; conditions: read-out: Activity
Malme-3M = test: Antitumor activity against human MALME-3M cells assessed as cell growth at 0.1 uM; format: functional; conditions: read-out: Activity
SK-OV-3 = test: Antitumor activity against human SKOV3 cells assessed as cell growth at 0.1 uM; format: functional; conditions: read-out: Activity
SNB-19 = test: Antitumor activity against human SNB19 cells assessed as cell growth at 0.1 uM; format: functional; conditions: read-out: Activity
[4] = Antitumor activity against human EKVX cells assessed as cell growth at 0.1 uM; format: functional; conditions: read-out: Activity
BT-549 = test: Antitumor activity against human BT549 cells assessed as cell growth at 0.1 uM; format: functional; conditions: read-out: Activity
Streptococcus pyogenes = test: Antimicrobial activity against Streptococcus pyogenes MTCC 442 assessed as growth inhibition measured after overnight incubation by broth dilution method; format: functional
RPMI-8226 = test: Antitumor activity against human RPMI8226 cells assessed as cell growth at 0.1 uM; format: functional; conditions: read-out: Activity
MDA-MB-468 = test: Antitumor activity against human MDA-MB-468 cells assessed as cell growth at 0.1 uM; format: functional; conditions: read-out: Activity
OVCAR-5 = test: Antitumor activity against human OVCAR5 cells assessed as cell growth at 0.1 uM; format: functional; conditions: read-out: Activity
MOLT-4 = test: Antitumor activity against human MOLT4 cells assessed as cell growth at 0.1 uM; format: functional; conditions: read-out: Activity
HT-29 = test: Antitumor activity against human HT-29 cells assessed as cell growth at 0.1 uM; format: functional; conditions: read-out: Activity
HOP-62 = test: Antitumor activity against human HOP62 cells assessed as cell growth at 0.1 uM; format: functional; conditions: read-out: Activity

O=C(CSc1nnc(-c2cccnc2SCc2ccccc2)o1)Nc1nc(Cl)cc(Cl)n1
growth at 0.1 µM (NCI/ADR-RES): 101%
growth at 0.1 µM [1]: 103%
growth at 0.1 µM (HL-60): 98.3%
growth at 0.1 µM (UO-31): 67.7%
growth at 0.1 µM (NCI-H23): 102%
MIC (Aspergillus niger): 500 µg/mL (≈ 989 µM)
growth at 0.1 µM (A498): 112%
growth at 0.1 µM (DU-145): 107%
growth at 0.1 µM (HCT-116): 97.2%
growth at 0.1 µM (SNB-75): 85.7%
MIC (Staphylococcus aureus): 250 µg/mL (≈ 495 µM)
growth at 0.1 µM (OVCAR-4): 106%
growth at 0.1 µM (SW-620): 103%
growth at 0.1 µM (U-251): 106%
growth at 0.1 µM (MDA-MB-231): 92%
growth inhibition (GI) [2]: 98%
MIC ([2]; Mycobacterium tuberculosis, H37Rv): 100 µg/mL (≈ 198 µM)
growth at 0.1 µM (UACC-257): 113%
growth at 0.1 µM (HCT-15): 106%
MIC (Pseudomonas aeruginosa): 200 µg/mL (≈ 396 µM)
growth at 0.1 µM (LOX IMVI): 94.9%
growth at 0.1 µM (NCI-H460): 105%
growth at 0.1 µM (NCI-H522): 83.1%
growth at 0.1 µM (SN12C): 103%
growth at 0.1 µM (IGROV-1): 105%
growth at 0.1 µM (SR): 101%
growth at 0.1 µM (SF-268): 99.8%
growth at 0.1 µM (K562): 92.8%
growth at 0.1 µM (PC-3): 94.5%
growth at 0.1 µM (SK-MEL-5): 101%
growth at 0.1 µM (UACC-62): 101%
growth at 0.1 µM (A549): 104%
growth at 0.1 µM (SK-MEL-28): 113%
growth at 0.1 µM (M14): 92%
growth at 0.1 µM (MDA-MB-435): 105%
growth at 0.1 µM (OVCAR-8): 102%
MIC (Candida albicans): 1000 µg/mL (≈ 1980 µM)
growth at 0.1 µM (RXF 393): 105%
growth at 0.1 µM (OVCAR-3): 106%
growth at 0.1 µM (MCF7): 92%
growth at 0.1 µM (TK-10): 109%
growth at 0.1 µM (T47D): 98.5%
growth at 0.1 µM (CAKI-1): 95.8%
growth at 0.1 µM (CCRF-CEM): 101%
growth at 0.1 µM (NCI-H226): 83.7%
growth at 0.1 µM (ACHN): 103%
growth at 0.1 µM [3]: 97.4%
growth at 0.1 µM (SK-MEL-2): 102%
MIC (Escherichia coli): 200 µg/mL (≈ 396 µM)
MIC (Aspergillus clavatus): 500 µg/mL (≈ 989 µM)
growth at 0.1 µM (SF-295): 96.8%
growth at 0.1 µM (SF-539): 101%
growth at 0.1 µM (Malme-3M): 94%
growth at 0.1 µM (SK-OV-3): 110%
growth at 0.1 µM (SNB-19): 106%
growth at 0.1 µM [4]: 103%
growth at 0.1 µM (BT-549): 102%
MIC (Streptococcus pyogenes): 200 µg/mL (≈ 396 µM)
growth at 0.1 µM (RPMI-8226): 100%
growth at 0.1 µM (MDA-MB-468): 98.8%
growth at 0.1 µM (OVCAR-5): 106%
growth at 0.1 µM (MOLT-4): 95.7%
growth at 0.1 µM (HT-29): 110%
growth at 0.1 µM (HOP-62): 90.6%
